Experimental data taken from patent US8709392B2, “Cosmetic/dermatological compositions comprising naphthoic acid compounds and polyurethane polymers” (Galderma Research & Development, priority 2005, dated 2014).

Key:
[1] = tested on: skin of the back of RHINO FVB/N RJ-hr^rh mice (Rhino); test: Study of the comedolytic activity on Rhino mice; format: in vivo, mouse; details: for Change in weight of the Rhino mice (%) D19-D1, Mean: 50 μl topical daily for 18 days; for increase in transepidermal water loss (TWL), AUC: Rhino mice, after 18 days of topical treatment
Experimental: The present study is aimed at evaluating the comedolytic activity of the reference gel containing 0.1% adapalene and of two 0.1% adapalene formulations in gel form with a polyurethane polymer at different concentrations, and also their placebos, on the skin of the back of RHINO FVB/N RJ-hr^rh mice (Rhino) after repeated topical applications for 18 days.
The daily topical application (50 μl) of the test products is performed on the skin of the back of Rhino mice divided into seven groups (approximately 7-week-old mice) at a rate of one application per day for 18 days. The test products are:
The tolerance evaluation is made by clinical observation of the dorsal epidermis with the following observation parameters: oedema, erythema and squamae 3 times a week for 19 days.
The comedolytic activity is evaluated by measuring the transepidermal water loss (TWL) on days D4, D11 and D19, by measuring the thickness of the epidermis, by counting the number of comedones/cm and by weighing the animals on days D1, D4, D11 and D19.
The TWL quantifies the impairment in the skin barrier by measuring the gradient of water vapor that is established in a layer 10 mm thick above the surface of the skin.

[2] = tested on: skin of the ear of the BALB/c mouse; test: Tolerance study in BALB/c mice (ear thickness after repeated topical applications); format: in vivo
Experimental: The present study is for comparing the irritant power of a reference gel containing 0.1% adapalene with that of three 0.1% adapalene formulations in gel form containing a polyurethane polymer at various concentrations, and also placebos thereof, on the skin of the ear of the BALB/c mouse after repeated topical applications for 6 days.
The daily topical application (20 μl) of the test products is performed on the inner face of the ear of BALB/c mice divided into ten groups (female mice about 8 weeks old) at a rate of one application per day for 6 days. The test products are:
The evaluation is performed by measuring the thickness of the ear by means of the Oditest and by clinical observation of the animals from the 2nd to the 19th day.

Row | SMILES | Change in weight of the Rhino mice (%) D19-D1, Mean [1] | increase in transepidermal water loss (TWL), AUC [1] | irritant power ([2]; BALB/c mouse ear thickness kinetics D2-D19) | Increase in AUC versus placebo (%) ([2]; ear thickness AUC D2-D19, BALB/c mouse, relative to own placebo)
1 | CC1(C)CCC(C)(C)c2cc(-c3cc4ccc(C(=O)O)cc4s3)ccc21 [2-(5,5,8,8-tetramethyl-5,6,7,8-tetrahydronaphthalen-2-yl)benzo[b]thiophene-6-carboxylic acid] | 10.4% | 332% |  | 
2 | COc1ccc(-c2ccc3cc(C(=O)O)ccc3c2)cc1C12CC3CC(CC(C3)C1)C2 [acetone+0.1% (m/m) adapalene, 6-[3-(1-adamantyl)-4-methoxyphenyl]-2-naphthoic acid] | 9.2% | 299% | also irritant | 30%
